Patent publication US20210038607A1, “OXADIAZOLYLTHIOPHENE DERIVATIVES USEFUL AS HISTONE DEACETYLASE INHIBITORS” (Karus Therapeutics Limited, priority 2018, published 2021)

Key:
Human HDAC7 = biological target: T1, Human HDAC7 (Homo sapiens, UniProt Q8WUI4); experiment: HDAC7 biochemical assay, class IIa-specific substrate; conditions: read-out: HDAC Isoform IC50 (nM) 7
T1 construct: (a.a. 518-end) with N-terminal GST tag; GST (N); host or cells: baculovirus expression system
T1 sequence (Q8WUI4 518-952 limits assumed): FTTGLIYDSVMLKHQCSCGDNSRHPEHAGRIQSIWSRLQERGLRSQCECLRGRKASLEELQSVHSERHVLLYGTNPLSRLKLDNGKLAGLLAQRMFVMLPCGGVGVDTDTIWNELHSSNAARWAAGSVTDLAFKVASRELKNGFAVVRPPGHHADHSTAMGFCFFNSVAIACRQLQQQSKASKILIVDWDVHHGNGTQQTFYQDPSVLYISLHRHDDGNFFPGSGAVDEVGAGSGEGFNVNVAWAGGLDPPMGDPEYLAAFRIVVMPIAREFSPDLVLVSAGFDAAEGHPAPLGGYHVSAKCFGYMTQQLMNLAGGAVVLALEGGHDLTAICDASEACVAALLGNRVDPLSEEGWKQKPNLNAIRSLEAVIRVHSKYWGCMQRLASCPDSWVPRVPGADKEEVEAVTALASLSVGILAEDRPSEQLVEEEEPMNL
Description: (§1) Activity against all zinc-dependent HDACs 1 to 11 was assessed by using an acetylated AMC-labeled peptide substrate. The substrate RHKK(Ac)AMC was used for HDAC1, HDAC2, HDAC3, HDAC6 and HDAC10; the substrate used for HDAC8 was RHK(Ac)K(Ac)AMC. Activity against the class IIa HDACs (HDAC4, 5, 7, 9) and HDAC11 was determined using a class IIa-specific substrate, BOC-Lys(trifluoroacetyl)-AMC (“Trifluoroacetyl Lysine”; see Lahm et al, 2007, PNAS, 104, 17335-17340). All assays were based on the AMC-labeled substrate and developer combination.
(§2) The protocol involved a two-step reaction: first, the substrate with the acetylated lysine side chain is incubated with a sample containing HDAC activity, to produce the deacetylated products, which are then digested in the second step by the addition of developer to produce the fluorescent signal proportional to the amount of deacetylated substrates.
Human HDAC7 (GenBank Accession No. AY302468), (a.a. 518-end) with N-terminal GST tag, MW=78 kDa, expressed in baculovirus expression system.
(§3) Assay Buffer: 50 mM Tris-HCl, pH8.0, 137 mM NaCl, 2.7 mM KCl, 1 mM MgC2. Before use, 1 mg/mL BSA and DMSO are added.
(§4) For class IIa HDACs, assay buffer is the same.
HDAC7: 0.001 ng/ul HDAC7 and 50 μM Class IIa HDAC substrate are in the reaction buffer with 1% DMSO final. Incubate for 30 minutes at room temperature.
(§5) Stage 1: Deacetylation of substrate by incubation of HDAC enzymes with compounds
(§6) Stage 2: Development by addition of Developer to digest the deacetylated substrate, and generate the fluorescent colour; Detection: 360/460 Ex/Em

Human HDAC4 = biological target: T2, Human HDAC4 (Homo sapiens, UniProt P56524); experiment: HDAC4 biochemical assay, class IIa-specific substrate; conditions: read-out: HDAC Isoform IC50 (nM) 4
T2 construct: amino acids 627-1085 with N-terminal GST tag; GST (N); host or cells: baculovirus expression system
Description: as §1, §2
Human HDAC4 (GenBank Accession No. NM_006037), amino acids 627-1085 with N-terminal GST tag, MW=75.2 kDa, expressed in baculovirus expression system.
as §3, §4
HDAC4: 0.004 ng/ul HDAC4 and 50 μM Class IIa HDAC substrate are in the reaction buffer with 1% DMSO final. Incubate for 30 minutes at room temperature.
as §5, §6

Human HDAC1 = biological target: T3, Human HDAC1 (Homo sapiens, UniProt Q13547); experiment: HDAC1 biochemical assay, AMC-labeled peptide substrate; conditions: read-out: HDAC Isoform IC50 (nM) 1
T3 construct: full length with C-terminal His-tag and C-terminal FLAG-tag; His (C); FLAG (C); host or cells: baculovirus expression system
Description: as §1, §2
Human HDAC1 (GenBank Accession No. NM_004964), full length with C-terminal His-tag and C-terminal FLAG-tag, MW=56 kDa, expressed in baculovirus expression system.
as §3
HDAC1: 0.3 ng/ul HDAC1 and 50 μM HDAC substrate are in the reaction buffer with 1% DMSO final. Incubate for 1 hour at 30° C.
as §5, §6

Human HDAC9 = biological target: T4, Human HDAC9 (Homo sapiens, UniProt Q9UKV0); experiment: HDAC9 biochemical assay, class IIa-specific substrate; conditions: read-out: HDAC Isoform IC50 (nM) 9
T4 construct: amino acids 604-1066 with C-terminal His tag; His (C); host or cells: baculovirus expression system
Description: as §1, §2
Human HDAC9 (GenBank Accession No. NM_178423), amino acids 604-1066 with C-terminal His tag, MW=50.7 kDa, expressed in baculovirus expression system.
as §3, §4
HDAC9: 0.06 ng/ul HDAC9 and 50 μM Class IIa HDAC substrate are in the reaction buffer with 1% DMSO final. Incubate for 30 minutes at room temperature.
as §5, §6

Human HDAC5 = biological target: T5, Human HDAC5 (Homo sapiens, UniProt Q9UQL6); experiment: HDAC5 biochemical assay, class IIa-specific substrate; conditions: read-out: HDAC Isoform IC50 (nM) 5
T5 construct: full length with C-terminal His tag, MW=51.1 kDa; His (C); host or cells: baculovirus expression system
Description: as §1, §2
Human HDAC5 (GenBank Accession No. NM_005474), full length with C-terminal His tag, MW=51.1 kDa, expressed in baculovirus expression system.
as §3, §4
HDAC5: 0.05 ng/ul HDAC5 and 50 μM Class IIa HDAC substrate are in the reaction buffer with 1% DMSO final. Incubate for 30 minutes at room temperature.
as §5, §6

Recombinant human HDAC6 = biological target: T6, Recombinant human HDAC6 (Homo sapiens, UniProt Q9UBN7); experiment: HDAC6 biochemical assay, AMC-labeled peptide substrate; conditions: HDAC6; read-out: HDAC Isoform IC50 (nM) 6
T6 construct: full length, MW=159 kDa; GST (N); host or cells: Sf9 insect cells (baculovirus)
T6 sequence (Q9UBN7 1-1215): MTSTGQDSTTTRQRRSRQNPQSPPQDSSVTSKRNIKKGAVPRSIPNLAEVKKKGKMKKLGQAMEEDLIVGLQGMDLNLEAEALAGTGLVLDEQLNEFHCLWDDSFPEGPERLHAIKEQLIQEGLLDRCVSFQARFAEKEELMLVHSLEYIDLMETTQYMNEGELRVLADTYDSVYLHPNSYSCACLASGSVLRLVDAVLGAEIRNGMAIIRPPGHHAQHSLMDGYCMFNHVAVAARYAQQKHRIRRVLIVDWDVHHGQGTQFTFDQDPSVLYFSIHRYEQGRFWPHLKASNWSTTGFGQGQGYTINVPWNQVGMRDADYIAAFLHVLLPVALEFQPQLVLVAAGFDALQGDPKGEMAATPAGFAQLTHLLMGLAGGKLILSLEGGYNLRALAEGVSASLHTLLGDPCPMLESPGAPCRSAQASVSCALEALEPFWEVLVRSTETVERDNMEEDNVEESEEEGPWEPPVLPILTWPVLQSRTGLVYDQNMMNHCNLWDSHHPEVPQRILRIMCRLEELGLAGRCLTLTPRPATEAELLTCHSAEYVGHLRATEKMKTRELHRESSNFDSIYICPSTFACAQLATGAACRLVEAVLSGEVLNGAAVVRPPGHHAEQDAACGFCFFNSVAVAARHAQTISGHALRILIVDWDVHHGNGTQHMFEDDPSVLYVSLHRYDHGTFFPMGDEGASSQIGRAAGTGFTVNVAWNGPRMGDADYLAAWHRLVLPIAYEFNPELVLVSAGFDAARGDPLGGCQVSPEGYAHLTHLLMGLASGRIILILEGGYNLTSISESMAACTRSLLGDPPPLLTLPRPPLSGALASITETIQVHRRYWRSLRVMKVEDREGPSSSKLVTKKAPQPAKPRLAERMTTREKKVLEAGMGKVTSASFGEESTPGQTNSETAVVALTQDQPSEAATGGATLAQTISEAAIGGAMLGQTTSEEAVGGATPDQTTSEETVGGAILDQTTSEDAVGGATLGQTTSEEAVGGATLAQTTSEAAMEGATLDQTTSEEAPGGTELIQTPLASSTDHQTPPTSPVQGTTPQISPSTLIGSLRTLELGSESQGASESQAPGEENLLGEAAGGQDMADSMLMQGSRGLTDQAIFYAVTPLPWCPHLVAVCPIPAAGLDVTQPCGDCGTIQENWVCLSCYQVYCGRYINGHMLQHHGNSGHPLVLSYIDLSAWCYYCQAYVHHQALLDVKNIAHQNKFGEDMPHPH
Description: as §1, §2
Recombinant human HDAC6 (GenBank Accession No. BC069243), full length, MW=159 kDa, was expressed by baculovirus in Sf9 insect cells using an N-terminal GST tag.
as §3
HDAC6: 0.3 ng/ul HDAC6 and 50 μM HDAC substrate are in the reaction buffer with 1% DMSO final. Incubate for 1 hours at 30° C.
as §5, §6

T4 sequence (Q9UKV0 604-1066 isoform Q9UKV0-5): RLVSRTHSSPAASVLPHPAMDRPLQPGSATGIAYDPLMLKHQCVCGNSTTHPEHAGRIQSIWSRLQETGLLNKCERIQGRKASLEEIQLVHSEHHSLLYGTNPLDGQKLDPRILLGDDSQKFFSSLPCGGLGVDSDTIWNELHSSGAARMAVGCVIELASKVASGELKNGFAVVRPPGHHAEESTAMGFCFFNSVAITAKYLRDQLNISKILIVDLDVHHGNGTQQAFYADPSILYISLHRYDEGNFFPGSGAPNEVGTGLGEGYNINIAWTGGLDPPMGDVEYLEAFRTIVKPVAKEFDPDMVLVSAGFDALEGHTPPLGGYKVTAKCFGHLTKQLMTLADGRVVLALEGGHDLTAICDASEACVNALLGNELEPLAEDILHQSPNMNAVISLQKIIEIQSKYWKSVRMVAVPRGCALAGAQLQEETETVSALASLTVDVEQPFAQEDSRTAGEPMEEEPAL
T3 sequence (Q13547 whole entry, canonical isoform): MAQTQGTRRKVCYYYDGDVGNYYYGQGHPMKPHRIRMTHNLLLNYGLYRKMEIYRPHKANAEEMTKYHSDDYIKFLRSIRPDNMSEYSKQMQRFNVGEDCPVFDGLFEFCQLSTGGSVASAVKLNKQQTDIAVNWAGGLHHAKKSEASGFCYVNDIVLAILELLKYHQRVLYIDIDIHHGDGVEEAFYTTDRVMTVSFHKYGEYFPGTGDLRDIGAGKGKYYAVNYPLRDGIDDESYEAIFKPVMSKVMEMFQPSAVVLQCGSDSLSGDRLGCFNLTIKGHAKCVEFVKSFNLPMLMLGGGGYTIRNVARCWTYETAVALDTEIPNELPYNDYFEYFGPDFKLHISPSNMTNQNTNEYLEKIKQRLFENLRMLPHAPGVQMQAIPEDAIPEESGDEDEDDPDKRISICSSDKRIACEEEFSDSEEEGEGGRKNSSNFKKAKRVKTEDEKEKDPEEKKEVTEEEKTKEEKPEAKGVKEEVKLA
T2 sequence (P56524 627-1084 limits assumed): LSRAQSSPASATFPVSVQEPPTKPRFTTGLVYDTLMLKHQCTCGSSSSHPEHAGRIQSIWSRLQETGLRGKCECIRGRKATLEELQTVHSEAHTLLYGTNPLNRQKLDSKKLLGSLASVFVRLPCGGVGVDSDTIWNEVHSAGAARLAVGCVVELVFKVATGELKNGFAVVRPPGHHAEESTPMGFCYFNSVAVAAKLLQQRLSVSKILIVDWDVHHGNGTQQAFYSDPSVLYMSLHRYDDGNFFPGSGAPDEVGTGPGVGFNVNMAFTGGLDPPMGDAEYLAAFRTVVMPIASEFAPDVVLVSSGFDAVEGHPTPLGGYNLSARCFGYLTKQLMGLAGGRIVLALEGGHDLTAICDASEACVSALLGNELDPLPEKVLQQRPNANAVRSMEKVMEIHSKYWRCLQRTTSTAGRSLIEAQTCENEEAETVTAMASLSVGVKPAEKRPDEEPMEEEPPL
T5 sequence (Q9UQL6 656-1122 limits assumed): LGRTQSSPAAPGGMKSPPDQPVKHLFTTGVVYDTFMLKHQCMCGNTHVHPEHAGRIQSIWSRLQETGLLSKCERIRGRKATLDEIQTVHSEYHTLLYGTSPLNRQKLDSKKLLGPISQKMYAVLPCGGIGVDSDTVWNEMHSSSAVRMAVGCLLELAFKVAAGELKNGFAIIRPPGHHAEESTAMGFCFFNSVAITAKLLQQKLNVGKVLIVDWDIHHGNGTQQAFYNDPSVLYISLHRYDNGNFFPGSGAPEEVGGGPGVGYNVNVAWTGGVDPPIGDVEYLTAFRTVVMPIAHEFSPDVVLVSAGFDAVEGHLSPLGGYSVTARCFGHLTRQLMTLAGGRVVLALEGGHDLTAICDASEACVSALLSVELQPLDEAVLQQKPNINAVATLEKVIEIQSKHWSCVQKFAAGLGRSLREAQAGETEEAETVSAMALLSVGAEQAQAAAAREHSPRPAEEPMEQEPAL

Row | SMILES | IC50 (Human HDAC7) | IC50 (Human HDAC4) | IC50 (Human HDAC1) | IC50 (Human HDAC9) | IC50 (Human HDAC5) | IC50 (Recombinant human HDAC6)
1 | COc1cncc(N(Cc2ccc(-c3noc(C(F)(F)F)n3)s2)c2cncc(OC)n2)n1 [Example BY, 6-Methoxy-N-(6-methoxypyrazin-2-yl)-N-({5-[5-(trifluoromethyl)-1,2,4-oxadiazol-3-yl]thiophen-2-yl}methyl)pyrazin-2-amine] | ≤ 10000 nM | ≤ 10000 nM | > 10000 nM | ≤ 10000 nM | ≤ 10000 nM | ≤ 10000 nM
2 | FC(F)(F)c1nc(-c2ccc(CN(c3cnccn3)c3ncccc3C3CC3)s2)no1 [Example AM, N-(3-Cyclopropylpyridin-2-yl)-N-({5-[5-(trifluoromethyl)-1,2,4-oxadiazol-3-yl]thiophen-2-yl}methyl)pyrazin-2-amine] | ≤ 1000 nM | ≤ 500 nM | > 10000 nM | ≤ 10000 nM | ≤ 500 nM | ≤ 10000 nM
3 | CS(=O)(=O)c1ncc(N(Cc2ccc(-c3noc(C(F)(F)F)n3)s2)c2cnccn2)cn1 [Example CW, 2-Methanesulfonyl-N-(pyrazin-2-yl)-N-({5-[5-(trifluoromethyl)-1,2,4-oxadiazol-3-yl]thiophen-2-yl}methyl)pyrimidin-5-amine] | ≤ 500 nM | ≤ 500 nM | > 10000 nM | ≤ 10000 nM | ≤ 500 nM | ≤ 10000 nM
4 | Cc1nc(N2CCCC2)cc(N(Cc2ccc(-c3noc(C(F)(F)F)n3)s2)c2cnccn2)n1 [Example CQ, 2-Methyl-N-(pyrazin-2-yl)-6-(pyrrolidin-1-yl)-N-({5-[5-(trifluoromethyl)-1,2,4-oxadiazol-3-yl]thiophen-2-yl}methyl)pyrimidin-4-amine] | ≤ 10000 nM | ≤ 10000 nM | > 10000 nM | ≤ 10000 nM | ≤ 10000 nM | ≤ 10000 nM
5 | FC(F)(F)c1nc(-c2ccc(CN(c3cnccn3)c3nccc(N4CCCC4)n3)s2)no1 [Example AV, N-(Pyrazin-2-yl)-4-(pyrrolidin-1-yl)-N-({5-[5-(trifluoromethyl)-1,2,4-oxadiazol-3-yl]thiophen-2-yl}methyl)pyrimidin-2-amine] | ≤ 10000 nM | ≤ 10000 nM | > 10000 nM | ≤ 10000 nM | ≤ 10000 nM | ≤ 10000 nM
6 | CN(C)c1cc(N(Cc2ccc(-c3noc(C(F)(F)F)n3)s2)c2cnccn2)ncn1 [Example CI, N4,N4-Dimethyl-N6-(pyrazin-2-yl)-N6-({5-[5-(trifluoromethyl)-1,2,4-oxadiazol-3-yl]thiophen-2-yl}methyl)pyrimidine-4,6-diamine] | ≤ 10000 nM | ≤ 10000 nM | ≤ 10000 nM | ≤ 10000 nM | ≤ 10000 nM | ≤ 10000 nM
7 | Cc1ccc(N(Cc2ccc(-c3noc(C(F)(F)F)n3)s2)c2cnccn2)nn1 [Example DF, 6-Methyl-N-(pyrazin-2-yl)-N-({5-[5-(trifluoromethyl)-1,2,4-oxadiazol-3-yl]thiophen-2-yl}methyl)pyridazin-3-amine] | ≤ 10000 nM | ≤ 10000 nM | > 10000 nM | ≤ 10000 nM | ≤ 10000 nM | ≤ 10000 nM
8 | CS(=O)(=O)c1cc(N(Cc2ccc(-c3noc(C(F)(F)F)n3)s2)c2cnccn2)ncn1 [Example CK, 6-Methanesulfonyl-N-(pyrazin-2-yl)-N-({5-[5-(trifluoromethyl)-1,2,4-oxadiazol-3-yl]thiophen-2-yl}methyl)pyrimidin-4-amine] | ≤ 10000 nM | ≤ 1000 nM | > 10000 nM | ≤ 10000 nM | ≤ 10000 nM | ≤ 10000 nM
9 | FC(F)(F)c1nc(-c2ccc(CN(c3ccc(N4CCOCC4)cn3)c3cnccn3)s2)no1 [Example AD, N-[5-(Morpholin-4-yl)pyridin-2-yl]-N-({5-[5-(trifluoromethyl)-1,2,4-oxadiazol-3-yl]thiophen-2-yl}methyl)pyrazin-2-amine] | ≤ 10000 nM | ≤ 10000 nM | ≤ 10000 nM | ≤ 10000 nM | ≤ 10000 nM | ≤ 10000 nM
